{"source": "patent US12725435B2", "about": "“FIM-CNN for detection of viable cells and/or particulate impurities” (Coriolis Pharma Research GmbH, priority 2021, dated 2026)", "key": {"Jurkat cells [1]": {"test_system": "Jurkat cells", "test": "Annexin V-FITC / PI fluorescence-based flow cytometry assay (apoptosis, necrosis)", "description": "(§1) Cell apoptosis and necrosis were determined by imaging flow cytometry after labelling of the cells with FITC and PI. Sample preparation was carried out according to the Dead Cell Apoptosis Kit instructions. After incubation for 15 min in the dark at room temperature samples were kept on wet ice until analysis. After adjusting the excitation power of the FlowSight imaging flow cytometer to 4 mW, the same instrument settings as described in for the calcein-AM assay above was used. Brightfield as well as fluorescence images in channels 02 (532/55 nm) for FITC and channel 4 (610/30 nm) for PI were recorded. Appropriate morphological filters based on mean intensity, area, aspect ratio and modulation from channel 09 were applied to discriminate between single cells and cell aggregates or debris particles. Once single cells were selected based on brightfield images, mean intensity values from channel 02 (fluorescence) were plotted against the particle area (erode mask) where the positively stained cells were classified as viable.\nFor selection of necrotic cells, two separate methods were used to induce cell necrosis. […] Images of debris particles were manually selected from measured suspensions of cells submitted to vortexing for approximately 2 min or two freeze-thaw cycles (−140° C.-37° C.)."}, "Jurkat cells [2]": {"test_system": "Jurkat cells", "test": "in vitro", "from_the_text": "(§2) Generation of particle images for population discrimination. The CNN was retrained on manually labelled images (4,000-4,500) of each of the three populations: viable cells, necrotic cells and debris particles. […] For selection of necrotic cells, two separate methods were used to induce cell necrosis. […] In order to further define image populations of viable and necrotic cells for the network fine-tuning, morphological parameters, such as aspect ratio, circle fit, convexity, sigma intensity and symmetry, of the two populations were used. Only particles (cells) of morphological parameter values falling between the 10th and 90th percentile of the manually selected population as viable and necrotic cells were taken for input to the training of the model. Images of debris particles were manually selected from measured suspensions of cells submitted to vortexing for approximately 2 min or two freeze-thaw cycles (−140° C.-37° C.).\nas §1"}, "Jurkat cells [3]": {"test_system": "Jurkat cells", "test": "FIM-CNN (FlowCam) cell counts and viability after forced degradation", "assay_type": "cell-based", "description": "Freeze-thaw stress. […] Further, five 1-ml aliquots were prepared in 1.8-ml Nalgene cryovials, which were submitted to freezing at −18° C. for 3 hours. This amount of time was sufficient for complete freezing of the aliquots. Prior to analysis, the samples were thawed for 2 min at 37° C., pooled and washed with fresh RPMI medium. Control samples were stored at 20° C. for 3 hours and were otherwise treated identically as the freeze-thawed samples. Shaking stress. […] The cryovials were submitted to shaking by constant horizontal agitation at 185 rpm at 25° C. by using an IC 4000 shaker (IKA, Germany). Analysis of cell suspensions of pooled cell aliquots was performed following 3 hours of shaking. Control samples were stored statically and protected from light at 25° C. in cryovials, and subsequently pooled. Flow imaging microscopy (FlowCam, FIM). Cells (viable and necrotic) and debris particles were quantified by using a FlowCam 8100 (Fluid Imaging Technologies, Scarborough, USA) equipped with a 50-μflow cell. […] In total, a sample volume of 140 μL was measured with an efficiency of approximately 63% (i.e., the imaged sample volume was ca. 87 μL). Particles imaged within the flow cell were detected with intensity thresholds of 12 for light and dark pixels. […] Collected images were not sorted by using any morphological filters and samples were measured in triplicate, unless otherwise stated. Image analysis using convolutional neural networks. Particle images captured by using FlowCam were analyzed by using convolutional neural networks (CNN). […] Briefly, the VGG-19 network using rectified linear unit activation functions, punctuated with max-pooling and dropout layers, was pre-trained on the ImageNet dataset (http://image-netorg). The re-training of the network was performed with the first ten layers frozen in order to save computation time and improve accuracy of the model by preserving its pre-learned feature recognition capabilities. For fine-tuning the dataset was split into an 8:1:1 ratio for training, validation and testing, respectively. […]"}, "[4]": {"test": "calcein-AM assay of cell viability (imaging flow cytometry)", "assay_type": "cell-based", "settings": "human, Jurkat cells; irrespective of DMSO content (2.5%, 5%, 10% v/v) and time point (T0, freeze-thaw, control)", "description": "Freeze-thaw stress. DMSO, cooled on wet ice, was slowly added to cell suspensions (placed on wet ice) to reach a target concentration 1%, 2.5%, 5% and 10% (v/v) at a cell concentration of 1×10^6 cells/ml. Further, five 1-ml aliquots were prepared in 1.8-ml Nalgene cryovials, which were submitted to freezing at −18° C. for 3 hours. This amount of time was sufficient for complete freezing of the aliquots. Prior to analysis, the samples were thawed for 2 min at 37° C., pooled and washed with fresh RPMI medium. Control samples were stored at 20° C. for 3 hours and were otherwise treated identically as the freeze-thawed samples.\nImaging flow cytometry. To assess cell viability based on cell metabolism, imaging flow cytometry was used in combination with the membrane-permeable dye calcein-AM (calcein-AM assay), at a final concentration of 6.3 nM in the sample to be analyzed. […] Subsequently, samples were analyzed by using an Amnis FlowSight imaging flow cytometer (Luminex, Seattle, USA) and data was analyzed using IDEAS 6.2.183 (Luminex, Seattle, USA) image analysis software. […] The side scatter laser was set to 10 mW and the 488 nm fluorescence excitation laser was set to 12 mW. Images of the calcein-AM stained cells were recorded in channel 02 (532/55 nm). […]"}, "in vitro": {"test": "in vitro", "settings": "human", "from_the_text": "as §2, §1"}, "[5]": {"settings": "staurosporin 1 μM to 500.000 cells/mL, Annexin V-FITC & PI double staining"}, "[6]": {"settings": "cell suspensions frozen with 2.5% (v/v) DMSO"}}}
{"smiles": "CN[C@@H]1C[C@H]2O[C@@](C)([C@@H]1OC)n1c3ccccc3c3c4c(c5c6ccccc6n2c5c31)C(=O)NC4", "note": "[staurosporin]", "values": [{"measurement": "necrotic cells", "setting": "Jurkat cells [1]; [5]", "result": "around 6%"}, {"measurement": "viable cells", "setting": "Jurkat cells [1]; [5]", "result": "~ 2%"}]}
{"smiles": "C[S+](C)[O-]", "note": "[DMSO, dimethyl sulfoxide]", "values": [{"measurement": "toxic effects of DMSO (PI assay)", "setting": "Jurkat cells [2]", "result": "loss of cell viability"}, {"measurement": "drop in cell viability (PI assay)", "setting": "Jurkat cells [2]; 5% and 10% (v/v) DMSO, freeze-thawed and control samples compared to T0", "result": "ca. 10%"}, {"measurement": "losses in viability (PI assay)", "setting": "Jurkat cells [2]; [6]", "result": "ca. 20%"}, {"measurement": "reduction of cell counts", "setting": "Jurkat cells [3]; 0% and 1% (v/v) DMSO, one freeze-thaw cycle (−18° C. 3 hours, thawing 2 min at 37° C.)", "result": "> 98", "unit": "%"}, {"measurement": "losses in viability (FIM-CNN assay)", "setting": "Jurkat cells [3]; [6]", "result": "ca. 20%"}, {"measurement": "toxic effects of DMSO (FIM)", "setting": "Jurkat cells [3]; exposure of 3 hours at RT, 10% (v/v)", "result": "loss of cell viability"}, {"measurement": "viability", "setting": "[4]", "result": "85 to 90", "unit": "%"}, {"measurement": "increase in apoptotic cell content", "setting": "Jurkat cells [1]; human, 3 h", "result": "~2", "unit": "fold"}]}
{"smiles": "CCO", "note": "[ethanol, reference compound]", "values": [{"measurement": "viability at 90 min, 10 % (v/v)", "setting": "in vitro", "result": 12.8, "unit": "%"}]}
